Test results from patent US20090061022A1, “Pharmaceutical composition comprising arsenite for the treatment of malignancy” (priority 2004, published 2009).
Where “and” joins values, the source holds several entries; their conditions need not be identical. Equal values may be shown once. Marks after values point to notes of the source that are not given here.

Tests used:
[1] = test system: panel of 9 human cancer cell lines; assay: Cytotoxic activity, whole panel of 9 human cancer cell lines (means, active/total); format: cell-based
Protocol: Three kinds of stock solutions were prepared for in vitro cytotoxic activity test. The first solution is DMSO (dimethyl sulfoxide) mixed with sodium meta-arsenite. […] The third solution is DMSO mixed with arsenic acid sodium salt. Those three solutions were diluted with culture medium (RPMI 1640). The final concentrations of DMSO in those three solutions are less than 0.3 vol %.
(§1) Nine kinds of human cancer cell lines out of six kinds of cancers were grown at 37° C. under a controlled atmosphere of 95% air and 5% CO2. The cells were grown on monolayer cultures of RPMI 1640 cell culture medium supplemented with 10% fetal calf serum.
(§2) The grown cells were harvested from exponential phase cultures by trypsinization and counted. The counted cells were placed in a plate, which has ninety six wells. Each well on the plate is in a shape of a flat-bottomed microtitre. Density of the cells in a suspension was adjusted depending on the cell line. The suspension was prepared by diluting the grown cells with the culture medium (RPMI 1640). […] Then add 50 μl of culture medium (RPMI 1640) only to 6 wells, 50 μl/well, among the 96 wells of one plate. It is called controlled. One well is filled with culture medium plus 5-FU. And another 50 μl of culture medium plus one of the stock solutions were added to each of the left 89 wells to allow cells to resume exponential growth.
The cytotoxic activity test was executed with three plates simultaneously to check reliability of the data obtained. The three plates contain the same samples of cancer cells. The three plates were then incubated for 3-7 days under the same controlled atmosphere and cell proliferation was assessed with a modified propodium iodide fluorescence assay. After thawing of the plates, fluorescence was measured using a Millipore Cytofluor 2350-microplate reader (excitation 530 nm emission 620 nm) in order to quantify the total cell number. The assay included untreated and positive controls containing 5-FU.
Growth inhibition is defined as (numbers of cancer cell alive) treated (T)/(number of cells) control (C)×100% (T/C %).

[2] = test system: panel of 12 human cancer cell lines; assay: Cytotoxic activity, whole panel of 12 human cancer cell lines, modified propidium iodide assay; conditions: panel of 12 human cancer cell lines, 4 days
Protocol: as §1
as §2, with “1640). Concentration of the cells were varied from 5×10^4 to 1×10^5 viable cells/ml. 100 μl of the suspension was placed in each well of the plate.” for “1640).”
(§3) In a further study, the cytotoxic activity profile of sodium meta-arsenite and arsenic acid sodium salt was investigated in different panels containing twelve (12) human cancer cell lines from eight (8) kinds of human cancers. The cancer cell samples were prepared as described in 1-1-B. Propidium iodide fluorescence assay method for this test was modified as the follows.

GXF 251L (gastric) = conditions: resistant
Protocol: as §1
as §2, with “1640). Concentration of the cells were varied from 5×10^4 to 1×10^5 viable cells/ml. 100 μl of the suspension was placed in each well of the plate.” for “1640).”
as §3

LXFA 629L = LXFA 629L non-small cell lung; resistant
Protocol: as §1
as §2, with “1640). Concentration of the cells were varied from 5×10^4 to 1×10^5 viable cells/ml. 100 μl of the suspension was placed in each well of the plate.” for “1640).”
as §3

LXFE 66NL = LXFE 66NL non-small cell lung; resistant
Protocol: as §1
as §2, with “1640). Concentration of the cells were varied from 5×10^4 to 1×10^5 viable cells/ml. 100 μl of the suspension was placed in each well of the plate.” for “1640).”
as §3

RXF393NL (renal) = conditions: resistant
Protocol: as §1
as §2, with “1640). Concentration of the cells were varied from 5×10^4 to 1×10^5 viable cells/ml. 100 μl of the suspension was placed in each well of the plate.” for “1640).”
as §3

RXF 944LX [3] = assay: Dose finding study in human renal cancer model RXF 944LX in nude mice (i.p. days 0, 7, 14)
From the text: In a dose finding study, the potential anticancer activity of sodium meta-arsenite and arsenic acid sodium salt versus arsenic trioxide was examined in the human renal cancer model, RXF 944LX.
(§4) Cancer fragments (1-2 mm in diameter), obtained from xenografts in serial passage in nude mice, were implanted subcutaneously (S.C.) in a flank of male NRMI nude mice (one fragment per mouse). Mice with appropriate cancer volumes (5-7 mm in diameter) were randomly distributed to treatment and control groups (4 mice/group). The start of treatment was day 0. Cancer volume and body weights were measured at least twice per week.
1) Sodium meta-arsenite (3, 10, 30 mg/kg/day), 2) Arsenic acid sodium salt (3, 10, 30 mg/kg/day) and 3) Arsenic trioxide (3, 10, 30 mg/kg/day) were administered intraperitoneally (i.p.) once daily on days 0, 7 and 14.
Stock solution of sodium meta-arsenite and arsenic acid sodium salt (3 mg/ml) were prepared in 5% (w/v) dextrose solution, respectively, to minimize acute arsenic toxicity. For arsenic trioxide, 9 mg of arsenic trioxide was dissolved in 1M NaOH (75 μl) followed by mixing with sterile aqua injectabilia (2175 μl) and sterile 20% (w/v) dextrose in water (500 μl). Further dilution to the desired concentration was done with a 5% dextrose solution to give a final concentration of 3 mg/ml.
(§5) The cancer volume of each animal was determined by two-dimensional measurement using calipers. The volume was calculated according to the formula: (a×b^2)×0.5; wherein a and b represent two perpendicular diameters in which a (length) is the larger diameter and b (width) the smaller diameter.
(§6) Relative cancer volumes (RCV) were calculated for each individual cancer by dividing the cancer volume on day X by the cancer volume on day 0 multiplied by 100%. The cancer volume of a treatment group was expressed as the median RCV of all mice of the group. Median RCV values were used for drawing growth curves and treatment evaluation. Optimal cancer growth inhibition at a particular day within the treatment period was calculated from the median RCV values of the treated (T) versus the controlled (C) group multiplied by 100%. A T/C value<50% was considered as anti-cancer activity.

RXF 944LX [4] = assay: Anticancer activity in RXF 944LX cancer bearing nude mice, intermittent and daily schedules; conditions: for MTD: i.p., RXF 944LX
Protocol: as §4, §5, §6
In the experiment with renal cancer RXF 944LX, the anticancer activity of the compounds was explored using two administration schedules; 1) intermittent schedule of 4 days×3, and 2) a daily schedule for 2 weeks (days 0-4, 7-11).
The dose levels chosen for sodium meta-arsenite and arsenic acid sodium salt in these schedules were based on the experience in the 1st experiment. Additional small dose finding studies were executed.

ALL-SCID 4 = assay: Anticancer activity in human leukemia model ALL-SCID 4; conditions: 100 mg/kg i.p., day 25
From the text: Anticancer activity of the sodium meta-arsenite and arsenic trioxide against two human paediatric acute lymphoblastic leukemia (ALL) models in vivo, ALL-SCID 4 was investigated to compare.
Male NOD/SCID mice (deficient in T and B lymphocytes, NK cells and functional macrophages) were transplanted s.c. on day 0 with fragments of ALL-SCID 4 cancers, which were obtained from mice used for routine passage of the cancers. Mice were randomized to the scheduled treatment groups.
Sodium meta-arsenite was administered orally at 2, 4 and 6 mg/kg/day (⅓ MTD, ⅔ MTD and MTD) once every day from day 34-54 after transplantation. The vehicle control (5% glucose in water) was administered i.p. (10 ml/kg).
Sodium meta-arsenite was dissolved in ready-to-use sterile infusion (5% (w/v) glucose in aqua injectabila). Arsenic trioxide was dissolved in 25 mM NaOH then dissolved in 5% glucose in aqua injectabila. The solutions were prepared freshly on the day of therapy for each administration.

[5] = mean over human cancer cell lines tested (9 line panel)
[6] = 32 mg/kg i.p., days 0-4, 7, 14-18

arsenic acid sodium salt was tested, and the “Assessment from comparison of the IC50 values” ([1]; 9 cell line panel) was “inactive”, the IC50 [1, 5] was 99 µM and the IC90 [1, 5] was 248 µM. The “Mean IC50” value [1, 5] was 30.8 µg/mL, the “Mean IC90” value [1, 5] was 77.5 µg/mL and the “Mean IC70” value ([1]; mean over human cancer cell lines tested (9 line panel), sodium salt) was 44.7 μg/ml and 143 μM. The “Mean IC50” value [2] was 25.5 µg/mL, the “Mean IC90” value [2] was 76.6 µg/mL and the “Mean IC70” value ([2]; sodium salt) was 40.1 μg/ml and 129 μM. It also gave an IC50 ([2]; read-out: Mean IC50) of 82 µM, an IC90 ([2]; read-out: Mean IC90) of 246 µM and an IC70 (GXF 251L (gastric)) of over 100 µg/mL. For the same molecule, the IC70 (LXFA 629L) was over 100 µg/mL, the IC70 (LXFE 66NL) was over 100 µg/mL and the IC70 (RXF393NL (renal)) was over 100 µg/mL. For the same molecule, the “BW loss % (day)” value (RXF 944LX [3]; 3 mg/kg i.p., days 0, 7, 14) was “+15 (21) %”, the Drug-related deaths (RXF 944LX [3]; 3 mg/kg i.p., days 0, 7, 14) was 0/4 and the Rating (RXF 944LX [3]; 3 mg/kg i.p., days 0, 7, 14) was “− (−T/C ≧ 50%)”. The “SGD (specific growth delay)” value (RXF 944LX [3]; 3 mg/kg i.p., days 0, 7, 14) was −0.5, the T/C % (RXF 944LX [3]; 3 mg/kg i.p., days 0, 7, 14) was 90% and the “BW loss % (day)” value (RXF 944LX [3]; 10 mg/kg i.p., days 0, 7, 14) was “+10 (21) %”. For the same molecule, the Drug-related deaths (RXF 944LX [3]; 10 mg/kg i.p., days 0, 7, 14) was 0/4, the Rating (RXF 944LX [3]; 10 mg/kg i.p., days 0, 7, 14) was “− (−T/C ≧ 50%)” and the “SGD (specific growth delay)” value (RXF 944LX [3]; 10 mg/kg i.p., days 0, 7, 14) was −0.2. For the same molecule, the T/C % (RXF 944LX [3]; 10 mg/kg i.p., days 0, 7, 14) was 74%, the “BW loss % (day)” value (RXF 944LX [3]; 30 mg/kg i.p., days 0, 7, 14) was “+14 (21) %” and the Drug-related deaths (RXF 944LX [3]; 30 mg/kg i.p., days 0, 7, 14) was 0/4. For the same molecule, the Rating (RXF 944LX [3]; 30 mg/kg i.p., days 0, 7, 14) was “− (−T/C ≧ 50%)”, the “SGD (specific growth delay)” value (RXF 944LX [3]; 30 mg/kg i.p., days 0, 7, 14) was 0.1 and the T/C % (RXF 944LX [3]; 30 mg/kg i.p., days 0, 7, 14) was 88%. The “T/C values of the 3 treatment groups” value (RXF 944LX [3]; 3, 10, 30 mg/kg/day i.p., days 0, 7, 14) was “greater than 74%”, the “Maximum Tolerated Dose (MTD)” value (RXF 944LX [3]; i.p. once daily on days 0, 7 and 14, RXF 944LX bearing nude mice) was “greater than 30 mg/kg/day” and the “BW loss % (day)” value (RXF 944LX [4]; 16 mg/kg i.p., days 0-4, 7-11) was −8 (14) %. The Drug-related deaths (RXF 944LX [4]; 16 mg/kg i.p., days 0-4, 7-11) was 2/6, the “SGD (specific growth delay)” value (RXF 944LX [4]; 16 mg/kg i.p., days 0-4, 7-11) was 0 and the T/C % (RXF 944LX [4]; 16 mg/kg i.p., days 0-4, 7-11) was 76%. The “BW loss % (day)” value (RXF 944LX [4]; 30 mg/kg i.p., days 0, 4, 8) was “+25 (14) %”, the Drug-related deaths (RXF 944LX [4]; 30 mg/kg i.p., days 0, 4, 8) was 1/6 and the “SGD (specific growth delay)” value (RXF 944LX [4]; 30 mg/kg i.p., days 0, 4, 8) was −0.2. The T/C % (RXF 944LX [4]; 30 mg/kg i.p., days 0, 4, 8) was 100%, the “BW loss % (day)” value (RXF 944LX [4]; [6]) was −10 (14) % and the Drug-related deaths (RXF 944LX [4]; [6]) was 3/6. For the same molecule, the “BW loss % (day)” value (RXF 944LX [4]; 45 mg/kg i.p., days 0, 4, 8) was “+22 (14) %”, the Drug-related deaths (RXF 944LX [4]; 45 mg/kg i.p., days 0, 4, 8) was 2/6 and the “SGD (specific growth delay)” value (RXF 944LX [4]; 45 mg/kg i.p., days 0, 4, 8) was −0.3. It also gave a T/C % (RXF 944LX [4]; 45 mg/kg i.p., days 0, 4, 8) of 100%, an MTD (RXF 944LX [4]; daily schedule (days 0-4, 7-11)) of 16 mg/kg/day and an MTD (RXF 944LX [4]; intermittent schedule (4 days×3)) of 45 mg/kg/day.
In the case of `O=P1(N(CCCl)CCCl)NCCCO1` (stereo not drawn) [Cyclophosphamide, reference compound], the “BW loss % (day)” value (ALL-SCID 4) is reported as “+4 (34) %”, the Drug-related deaths (ALL-SCID 4) is reported as 0/8 and the T/C % (ALL-SCID 4) is reported as 4* %.
